These molecules were tested against Tyrosine-protein kinase JAK1 (Homo sapiens, UniProt P23458) (assay: Inhibition of JAK1 (unknown origin)).
Tyrosine-protein kinase JAK1, sequence (P23458 whole entry): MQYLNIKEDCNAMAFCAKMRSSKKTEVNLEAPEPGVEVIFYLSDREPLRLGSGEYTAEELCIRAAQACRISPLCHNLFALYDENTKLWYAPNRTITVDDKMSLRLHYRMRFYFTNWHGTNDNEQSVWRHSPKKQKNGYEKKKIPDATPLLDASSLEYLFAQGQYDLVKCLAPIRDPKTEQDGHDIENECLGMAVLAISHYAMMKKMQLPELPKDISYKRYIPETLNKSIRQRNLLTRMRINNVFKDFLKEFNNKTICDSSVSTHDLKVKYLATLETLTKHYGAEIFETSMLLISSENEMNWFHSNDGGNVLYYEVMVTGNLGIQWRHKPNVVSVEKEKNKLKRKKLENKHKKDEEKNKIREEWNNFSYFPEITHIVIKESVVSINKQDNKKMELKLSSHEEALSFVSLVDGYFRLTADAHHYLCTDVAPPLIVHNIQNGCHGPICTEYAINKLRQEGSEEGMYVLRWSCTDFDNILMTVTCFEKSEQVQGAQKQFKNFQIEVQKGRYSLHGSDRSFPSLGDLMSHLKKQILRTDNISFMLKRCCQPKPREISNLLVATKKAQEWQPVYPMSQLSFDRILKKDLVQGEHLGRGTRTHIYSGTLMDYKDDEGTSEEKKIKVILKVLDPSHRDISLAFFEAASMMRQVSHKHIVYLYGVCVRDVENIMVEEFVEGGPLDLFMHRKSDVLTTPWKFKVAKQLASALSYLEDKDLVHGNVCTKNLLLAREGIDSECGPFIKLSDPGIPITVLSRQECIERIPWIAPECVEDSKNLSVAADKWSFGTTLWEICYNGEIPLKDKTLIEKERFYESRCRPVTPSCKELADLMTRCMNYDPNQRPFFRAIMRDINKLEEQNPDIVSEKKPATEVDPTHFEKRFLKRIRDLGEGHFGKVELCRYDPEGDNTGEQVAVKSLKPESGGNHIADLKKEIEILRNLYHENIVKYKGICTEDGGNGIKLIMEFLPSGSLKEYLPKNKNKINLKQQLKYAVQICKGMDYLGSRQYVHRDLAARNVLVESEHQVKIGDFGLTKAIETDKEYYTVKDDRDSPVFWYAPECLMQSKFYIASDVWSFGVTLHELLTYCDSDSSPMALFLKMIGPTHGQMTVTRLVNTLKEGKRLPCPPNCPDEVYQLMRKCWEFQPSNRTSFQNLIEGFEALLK

Compared with `CCC1CN(C(=O)NCC(F)(F)F)CC1NCc1ccc(C)nc1-c1cnc2[nH]ccc2c1` (stereo not drawn), `CCC1CN(C(=O)NCC(F)(F)F)CC1c1nc(N)nc2[nH]ccc12` (stereo not drawn) is 19-fold higher in IC50: 500 nM for the first, 9600 nM for the second.

`CCC1CN(C(=O)NCC(F)(F)F)CC1N(C)c1ncnc2[nH]ccc12` (stereo not drawn) was tested, and the IC50 was 930 nM.
